Reference: the supplement of paper PMC8920030

Legend:
Conditions in all cases: growth mode: biofilm, 24 h; exposure time: 24 h
tobramycin [1] = compound: T1, NC[C@H]1O[C@H](O[C@H]2[C@H](O)[C@@H](O[C@H]3O[C@H](CO)[C@@H](O)[C@H](N)[C@H]3O)[C@H](N)C[C@@H]2N)[C@H](N)C[C@@H]1O [tobramycin]; assay: minimum concentration of killing, 2-log CFU reduction of biofilm (MCK99); higher = more biofilm tolerance
Procedure: (§1)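 Clinical P. aeruginosa isolates were grown as static biofilms for 24 h at 37 °C in LB in half-area 96-well plates, then exposed for 24 h to tobramycin at 1, 4, 16, 64, 256 or […]. Surviving CFU were counted by spotting serial dilutions. MCK is the lowest tested concentration giving the stated log reduction in CFU versus an untreated control; '>1024' means the reduction was not reached at the top dose, and 1 is the lowest dose tested (≤1).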

tobramycin [2] = compound: T1, tobramycin; assay: minimum concentration of killing, 4-log CFU reduction of biofilm (MCK99.99); higher = more biofilm tolerance
Procedure: as §1

tobramycin [3] = compound: T1, tobramycin; assay: minimum concentration eradicating biofilm below detection limit (MCK-E); higher = more biofilm tolerance
Procedure: as §1

tobramycin [4] = compound: T1, tobramycin; assay: minimum concentration of killing, 1-log CFU reduction of biofilm (MCK90); higher = more biofilm tolerance
Procedure: as §1

colistin [5] = compound: T2, CCC(C)CCCC(=O)N[C@@H](CCN)C(=O)N[C@H](C(=O)N[C@@H](CCN)C(=O)N[C@H]1CCNC(=O)[C@H]([C@@H](C)O)NC(=O)[C@H](CCN)NC(=O)[C@H](CCN)NC(=O)[C@H](CC(C)C)NC(=O)[C@@H](CC(C)C)NC(=O)[C@H](CCN)NC1=O)[C@@H](C)O [colistin]; assay: minimum concentration of killing, 4-log CFU reduction of biofilm (MCK99.99); higher = more biofilm tolerance
Procedure: (§2)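 Clinical P. aeruginosa isolates were grown as static biofilms for 24 h at 37 °C in LB in half-area 96-well plates, then exposed for 24 h to colistin at 1, 4, 16, 64, 256 or […]. Surviving CFU were counted by spotting serial dilutions. MCK is the lowest tested concentration giving the stated log reduction in CFU versus an untreated control; '>1024' means the reduction was not reached at the top dose, and 1 is the lowest dose tested (≤1).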

colistin [6] = compound: T2, colistin; assay: minimum concentration of killing, 1-log CFU reduction of biofilm (MCK90); higher = more biofilm tolerance
Procedure: as §2

colistin [7] = compound: T2, colistin; assay: minimum concentration of killing, 2-log CFU reduction of biofilm (MCK99); higher = more biofilm tolerance
Procedure: as §2

colistin [8] = compound: T2, colistin; assay: minimum concentration eradicating biofilm below detection limit (MCK-E); higher = more biofilm tolerance
Procedure: as §2

Test System: Pseudomonas aeruginosa clinical isolate CH5531
- minimum concentration of killing (tobramycin [1]): 256 µg/mL
- minimum concentration of killing (tobramycin [2]): 256 µg/mL
- minimum concentration eradicating biofilm below detection limit (tobramycin [3]): 1020 µg/mL
- minimum concentration of killing (tobramycin [4]): 16 µg/mL

Test System: Pseudomonas aeruginosa clinical isolate CH5548
- minimum concentration of killing (tobramycin [1]): 4 µg/mL
- minimum concentration of killing (tobramycin [2]): 16 µg/mL
- minimum concentration eradicating biofilm below detection limit (tobramycin [3]): 64 µg/mL
- minimum concentration of killing (tobramycin [4]): 4 µg/mL

Test System: Pseudomonas aeruginosa clinical isolate CH5591
- minimum concentration of killing (tobramycin [1]): 1020 µg/mL
- minimum concentration of killing (tobramycin [2]): > 1020 µg/mL
- minimum concentration eradicating biofilm below detection limit (tobramycin [3]): > 1020 µg/mL
- minimum concentration of killing (tobramycin [4]): 1020 µg/mL

Test System: Pseudomonas aeruginosa clinical isolate F1659
- minimum concentration of killing (colistin [5]): 64 µg/mL
- minimum concentration of killing (colistin [6]): 16 µg/mL
- minimum concentration of killing (tobramycin [1]): 16 µg/mL
- minimum concentration of killing (tobramycin [2]): 256 µg/mL
- minimum concentration eradicating biofilm below detection limit (tobramycin [3]): 1020 µg/mL
- minimum concentration of killing (colistin [7]): 64 µg/mL
- minimum concentration of killing (tobramycin [4]): 4 µg/mL

Test System: Pseudomonas aeruginosa clinical isolate F1689
- minimum concentration of killing (tobramycin [1]): 4 µg/mL
- minimum concentration of killing (tobramycin [4]): 4 µg/mL

Test System: Pseudomonas aeruginosa clinical isolate F1748
- minimum concentration of killing (colistin [5]): 256 µg/mL
- minimum concentration of killing (colistin [6]): 256 µg/mL
- minimum concentration of killing (tobramycin [1]): 16 µg/mL
- minimum concentration of killing (tobramycin [2]): 16 µg/mL
- minimum concentration eradicating biofilm below detection limit (tobramycin [3]): 256 µg/mL
- minimum concentration of killing (colistin [7]): 256 µg/mL
- minimum concentration of killing (tobramycin [4]): 4 µg/mL

Test System: Pseudomonas aeruginosa clinical isolate F1801
- minimum concentration of killing (colistin [5]): 256 µg/mL
- minimum concentration of killing (colistin [6]): 256 µg/mL
- minimum concentration of killing (tobramycin [1]): 4 µg/mL
- minimum concentration of killing (tobramycin [2]): 256 µg/mL
- minimum concentration eradicating biofilm below detection limit (tobramycin [3]): 256 µg/mL
- minimum concentration of killing (colistin [7]): 256 µg/mL
- minimum concentration of killing (tobramycin [4]): ≤ 1 µg/mL

Test System: Pseudomonas aeruginosa clinical isolate F1883
- minimum concentration of killing (colistin [5]): 1020 µg/mL
- minimum concentration of killing (colistin [6]): 16 µg/mL
- minimum concentration of killing (tobramycin [1]): 256 µg/mL
- minimum concentration of killing (colistin [7]): 256 µg/mL
- minimum concentration eradicating biofilm below detection limit (colistin [8]): 1020 µg/mL
- minimum concentration of killing (tobramycin [4]): 64 µg/mL

Test System: Pseudomonas aeruginosa clinical isolate F1997
- minimum concentration of killing (tobramycin [1]): 64 µg/mL
- minimum concentration of killing (tobramycin [2]): 1020 µg/mL
- minimum concentration eradicating biofilm below detection limit (tobramycin [3]): > 1020 µg/mL
- minimum concentration of killing (tobramycin [4]): 16 µg/mL

Test System: Pseudomonas aeruginosa clinical isolate F2034
- minimum concentration of killing (colistin [5]): 256 µg/mL
- minimum concentration of killing (colistin [6]): 64 µg/mL
- minimum concentration of killing (colistin [7]): 64 µg/mL
- minimum concentration eradicating biofilm below detection limit (colistin [8]): 256 µg/mL

Test System: Pseudomonas aeruginosa clinical isolate F2035
- minimum concentration of killing (colistin [5]): 256 µg/mL
- minimum concentration of killing (colistin [6]): 64 µg/mL
- minimum concentration of killing (colistin [7]): 64 µg/mL
- minimum concentration eradicating biofilm below detection limit (colistin [8]): 1020 µg/mL

Test System: Pseudomonas aeruginosa clinical isolate F2044
- minimum concentration eradicating biofilm below detection limit (colistin [8]): 256 µg/mL

Test System: Pseudomonas aeruginosa clinical isolate F2045
- minimum concentration eradicating biofilm below detection limit (colistin [8]): > 1020 µg/mL

Test System: Pseudomonas aeruginosa clinical isolate F2059
- minimum concentration eradicating biofilm below detection limit (colistin [8]): 256 µg/mL
